Read-outs that look alike come from different tables or passages of the source.
Columns and labels:
caspase 3 = assay: Caspase activation colorimetric assay, caspase 3; format: cell-based, human; details: B-CLL cells, 0.3 or 3.0 μM MS-275, 24 hours
Method: FIG. 4. […] B-CLL patient cells were incubated with 0.3 or 3.0 μM MS-275 for 24 hours. At these time points, lysates were prepared from the cells and caspase 3 activity in the lysates was measured using a colorimetric assay. To determine the role and identity of caspases involved in MS-275-induced apoptosis, B-CLL cells, isolated as described in Example 1, were treated with MS-275 and analyzed for caspase activation by colorimetric assay. […] Cleavage of the protein BID, a known substrate of caspase 8, was also shown.

human tumor cell lines = details: A. Saito, et al., 1999; cited from earlier work
caspases 8 and 9 = assay: Caspase activation, caspases 8 and 9; format: cell-based, human; details: B-CLL cells treated with MS-275, other studies
Method: To determine the role and identity of caspases involved in MS-275-induced apoptosis, B-CLL cells, isolated as described in Example 1, were treated with MS-275 and analyzed for caspase activation by colorimetric assay. […] Cleavage of the protein BID, a known substrate of caspase 8, was also shown.

[1] = test system: cellular histone deacetylase activity; details: A. Saito, et al., 1999; cited from earlier work
B-CLL cells [2] = assay: Annexin V/propidium iodide flow cytometric apoptosis assay; format: cell-based, human
Method: FIG. 3. […] B-CLL patient cells were incubated with 0, 0.3, or 3.0 μM MS-275 for 24 hours. Apoptosis was assessed by annexin V/propidium iodide flow cytometry. To determine whether MS-275-treated B-CLL cells were undergoing apoptosis, an annexin V/propidium iodide flow cytometric assay was used to analyze the B-CLL cells, isolated as described in Example 1, from four different patients. Staining of cells for annexin V is an early indicator of initiation of apoptosis. Staining of cells with propidium iodide is an indicator that cells are no longer viable and, therefore, that apoptosis has actually occurred (i.e., integrity of cell membrane has been breached). To perform the assay, cells were exposed to various concentrations of MS-275 for 4 hours. Then, the cells were washed, resuspended in complete medium and incubated for 24 or 48 hours in absence of MS-275. At these times, cells were washed with PBS and resuspended in binding buffer containing annexin V-FITC and propidium iodide (BD Pharmingen, San Diego, Calif.). After 15 minutes of incubation in the dark at room temperature, apoptosis was assessed by flow cytometry on a Coulter EPICS-XL flow cytometer. […] The results were similar in the other three patients.

in vitro = format: cell-based; details: human
Source text: Peripheral blood mononuclear cells (PBMCs) were obtained from the B-CLL patients and were also obtained from healthy volunteers as controls. Peripheral blood was collected from the patients or volunteers using standard techniques (see for example, S. Bennett and S. N. Breit, 1994, Variables in the isolation and culture of human monocytes that are of particular relevance to studies of HIV, J. Leukoc. Biol. 56:236-40). PMBCs were isolated from the blood using standard density gradient centrifugation using Ficoll-Paque Plus (Pharmacia Biotech, Picsataway N.J.). After isolation, the PBMCs were washed in phosphate-buffered saline (PBS).
(§1) In order to accurately represent the in vivo situation where drug is eliminated from the bloodstream, 1×10^6 PBMCs from B-CLL patients or healthy volunteers, isolated as described in Example 1, were incubated in various concentrations of MS-275 in RPMI 1640 with 10% heat-inactivated fetal bovine serum for 4, 24 or 96 hours at 37° C. in 96-well plates. […] Viability of the cells was then analyzed using the MTT assay. […] To use the MTT assay, MTT reagent was added and the cells were incubated for an additional 24 hours before washing and analysis of purple formazan formation by spectrophotometry in a Labsystems 96-well plate reader. Data were plotted and values were calculated using GraphPad software (San Diego, Calif.).

B-CLL cells [3] = assay: cells; format: cell-based; details: Homo sapiens, read-out: LC50
Method: FIG. 1. LC50 determination of MS-275 in primary B-CLL cells. Peripheral blood mononuclear cells (PBMCs) from thirteen individual B-CLL patients were isolated and incubated with varying concentrations of MS-275 from 0.01 to 100 uM. A. Cells were incubated in drug for 4 hours and were then washed and re-incubated in fresh media for a total of 96 hours. B. Cells were incubated in drug for 96 hours continuously. Viability was determined by an MTT assay to detect metabolic activity. Each patient sample at each concentration was run in quadruplicate and was normalized to cells from the same patient incubated for the same time period in media alone. Error bars represent 95% confidence intervals. […]
as §1, with “Data were plotted and values were calculated using GraphPad software (San Diego, Calif.).” left out

1D10 antigen = 1D10 antigen levels on B-CLL cells by immunofluorescence flow cytometry; format: cell-based, human; details: 3.0 μM MS-275, 24 hours
Method: Washed B-CLL cells, isolated as described in Example 1, from four different patients with B-CLL, were incubated at a concentration of 10^7 cells per ml in the presence or absence of 3.0 μM MS-275 for 24 hours, before being immunofluorescently stained with either non-specific antibody (unable to specifically bind to the cells) or antibody immunospecific for 1D10 antigen. All cells were also stained with an antibody immunospecific for CD19 (recognizing B cells). The cells were analyzed by flow cytometry. The mean fluorescence intensity due to 1D10 antigen staining of CD19-positive cells was recorded.

histone deacetylases = assay: Histone acetylation in B-CLL cells by immunoblotting; format: cell-based, human
Method: FIG. 2. MS-275 induced acetylation of histone proteins. PBMCs from two different B-CLL patients (Patient No. 1 and 2) were collected and incubated with 0, 0.3, or 3.0 μM MS-275 for 24 hours. Nuclear extracts were prepared from the cells and were separated by SDS-polyacrylamide gel electrophoresis before immunoblotting with antibodies immunospecific for acetylated forms of H3 or H4 histones. Coomassie blue staining was used to control for protein amount loaded onto the SDS polyacrylamide gels.
Antibodies immunospecific for specific acetylated lysine residues at the N terminus of histone H4 (i.e., K5, K8, K12 and K16) were also used. For immunoblotting, whole cell lysates were prepared from the cells using standard procedures. Protein samples were separated along with molecular weight markers (BioRad) on 10 to 14% SDS-polyacrylamide gels. Proteins in the gels were transferred using a semidry apparatus (BioRad) onto nitrocellulose membranes (Schleicher and Schuell, Keene, N.H.). Gel loading equivalence was confirmed by Ponceau S stain (Sigma) of membranes and by probing with a monoclonal antibody for GAPDH. Blots were developed with chemiluminescent substrate (Pierce Super-Signal, Pierce Biotechnology, Rockford, Ill.) and autoradiography was performed with X-OMAT film (Kodak, Rochester, N.Y.). Protein bands were digitally quantified using a ChemiDoc instrument (BioRad).

[4] = Patient No. 1, CD19-positive B-CLL cells
[5] = Patient No. 2, CD19-positive B-CLL cells
[6] = Patient No. 3, CD19-positive B-CLL cells
[7] = Patient No. 4, CD19-positive B-CLL cells
[8] = Patient No. 1, 0.3 μM MS-275, 24 hours
[9] = Patient No. 1, 3.0 μM MS-275, 24 hours
[10] = Patient No. 2, 0.3 μM MS-275, 24 hours
[11] = Patient No. 2, 3.0 μM MS-275, 24 hours

## Nc1ccccc1NC(=O)c1ccc(CNC(=O)OCc2cccnc2)cc1 [MS-275, N-(2-aminophenyl)-4-[N-(pyridin-3-yl-methoxycarbonyl)aminomethyl]benzamide]
Caspase 3
  caspase 3 activation: induced activation of caspase 3
Human tumor cell lines
  growth in a variety of human tumor cell lines: block growth
Caspases 8 and 9
  caspases 8 and 9 activation: activated to a lesser extent than caspase 3
[1]
  inhibition of cellular histone deacetylase activity: inhibit cellular histone deacetylase activity
B-CLL cells [2]; 0.3 μM of MS-275, after 48 hours
  apoptosis (annexin V/propidium iodide flow cytometry): apoptosis was detected after 48 hours
B-CLL cells [2]; 3.0 μM of MS-275, within 24 hours, one representative patient
  apoptosis (annexin V/propidium iodide flow cytometry): apoptosis was detected within 24 hours
B-CLL cells [2]; expression of the anti-apoptotic protein Bcl-2, other studies
  effect of Bcl-2 expression on MS-275-induced apoptosis: inhibited by expression of the anti-apoptotic protein Bcl-2
In vitro
  CC50 at 4 h: ≥ 21100 nM
  CC50 at 96 h: ≥ 4750 nM
B-CLL cells [3]; 96 h
  CC50: 509 nM
B-CLL cells [3]
  CC50: 1210 nM
1D10 antigen; [4]
  mean 1D10 fluorescence normalized to the staining control: 88
  mean 1D10 fluorescence of the cells: 104.11
1D10 antigen; [5]
  mean 1D10 fluorescence normalized to the staining control: 393
  mean 1D10 fluorescence of the cells: 463.23
1D10 antigen; [6]
  mean 1D10 fluorescence normalized to the staining control: 3252
  mean 1D10 fluorescence of the cells: 6438.03
1D10 antigen; [7]
  mean 1D10 fluorescence normalized to the staining control: 4158
  mean 1D10 fluorescence of the cells: 5446.76
Histone deacetylases; [8]
  Fold Increase in Histone Acetylation (Relative to Untreated), H3 Total: 1.3 fold
  Fold Increase in Histone Acetylation (Relative to Untreated), H4 K5: 2.7 fold
  Fold Increase in Histone Acetylation (Relative to Untreated), H4 K8: 1.6 fold
  Fold Increase in Histone Acetylation (Relative to Untreated), H4 K12: 4.4 fold
  Fold Increase in Histone Acetylation (Relative to Untreated), H4 K16: 3.7 fold
  Fold Increase in Histone Acetylation (Relative to Untreated), H4 Total: 2.4 fold
Histone deacetylases; [9]
  Fold Increase in Histone Acetylation (Relative to Untreated), H3 Total: 2.3 fold
  Fold Increase in Histone Acetylation (Relative to Untreated), H4 K5: 8.9 fold
  Fold Increase in Histone Acetylation (Relative to Untreated), H4 K8: 1.9 fold
  Fold Increase in Histone Acetylation (Relative to Untreated), H4 K12: 15.8 fold
  Fold Increase in Histone Acetylation (Relative to Untreated), H4 K16: 9.1 fold
  Fold Increase in Histone Acetylation (Relative to Untreated), H4 Total: 3.9 fold
Histone deacetylases; [10]
  Fold Increase in Histone Acetylation (Relative to Untreated), H3 Total: 1.5 fold
  Fold Increase in Histone Acetylation (Relative to Untreated), H4 K5: 2.6 fold
  Fold Increase in Histone Acetylation (Relative to Untreated), H4 K8: 4.4 fold
  Fold Increase in Histone Acetylation (Relative to Untreated), H4 K12: 5.1 fold
  Fold Increase in Histone Acetylation (Relative to Untreated), H4 K16: 3.1 fold
  Fold Increase in Histone Acetylation (Relative to Untreated), H4 Total: 3.8 fold
Histone deacetylases; [11]
  Fold Increase in Histone Acetylation (Relative to Untreated), H3 Total: 3.1 fold
  Fold Increase in Histone Acetylation (Relative to Untreated), H4 K5: 4.5 fold
  Fold Increase in Histone Acetylation (Relative to Untreated), H4 K8: 4.8 fold
  Fold Increase in Histone Acetylation (Relative to Untreated), H4 K12: 10.3 fold
  Fold Increase in Histone Acetylation (Relative to Untreated), H4 K16: 4.7 fold
  Fold Increase in Histone Acetylation (Relative to Untreated), H4 Total: 5.2 fold

Reference: patent US6841565B1, “Treatment of patients with chronic lymphocytic leukemia” (The Ohio State University, priority 2002, dated 2005)
